Assay results published in ChEMBL document CHEMBL3885881, “DrugMatrix”.

Organism: Rattus norvegicus
Assay: DrugMatrix - Regimen: Daily Repeat
Assay type: toxicity, organism-based, Sprague-Dawley
Design: regimen Daily Repeat, gender Male, age 6-8 weeks
Settings: in vivo, po, route oral GAVAGE, vehicle 100 % WATER; for ABSOLUTE BASOPHIL / ABSOLUTE EOSINOPHIL / ABSOLUTE LYMPHOCYTE / ABSOLUTE MONOCYTE / ABSOLUTE SEGMENTED NEUTROPHIL / BASOPHIL / EOSINOPHIL / ERYTHROCYTE COUNT / HEMATOCRIT / HEMOGLOBIN / LEUKOCYTE COUNT / LYMPHOCYTE / MEAN CORPUSCULAR HEMOGLOBIN / MEAN CORPUSCULAR HEMOGLOBIN CONCENTRATION / MEAN CORPUSCULAR VOLUME / MONOCYTE / NEUTROPHIL / NUCLEATED RED BLOOD CELLS / PLATELET COUNT: tissue Blood; for ALANINE AMINOTRANSFERASE / ALBUMIN / ALKALINE PHOSPHATASE / ASPARTATE AMINOTRANSFERASE / BLOOD UREA NITROGEN / CARBON DIOXIDE / CHLORIDE / CHOLESTEROL / CREATINE PHOSPHOKINASE / CREATININE / GLUCOSE / LACTATE DEHYDROGENASE / LIPASE / PHOSPHORUS / POTASSIUM / SODIUM / TOTAL BILIRUBIN / TOTAL PROTEIN / URIC ACID: tissue Plasma
[1] = 60 mg/kg, 120 h, dose level Low, time 5 day
[2] = 1300 mg/kg, 72 h, dose level High, time 3 day
[3] = 1300 mg/kg, 120 h, dose level High, time 5 day

`CC(C)C[C@H](NC(=O)[C@@H](O)[C@H](N)Cc1ccccc1)C(=O)O` [UBENIMEX] was tested, and the “ABSOLUTE BASOPHIL” value [1] was 0 CELLS/uL, the “ABSOLUTE EOSINOPHIL” value [1] was 0 CELLS/uL and the “ABSOLUTE LYMPHOCYTE” value [1] was 15131 CELLS/uL. The “ABSOLUTE MONOCYTE” value [1] was 122 CELLS/uL, the “ABSOLUTE SEGMENTED NEUTROPHIL” value [1] was 847 CELLS/uL and the BASOPHIL [1] was 0%. The EOSINOPHIL [1] was 0%, the “ERYTHROCYTE COUNT” value [1] was 5.87 x10E6/uL and the HEMATOCRIT [1] was 36.17%. The HEMOGLOBIN [1] was 14.03 G/DL, the “LEUKOCYTE COUNT” value [1] was 16.1 x10E3/uL and the LYMPHOCYTE [1] was 94.33%. For the same compound, the “MEAN CORPUSCULAR HEMOGLOBIN” value [1] was 23.9 pg, the “MEAN CORPUSCULAR HEMOGLOBIN CONCENTRATION” value [1] was 38.77 G/DL and the “MEAN CORPUSCULAR VOLUME” value [1] was 61.53 fL. The MONOCYTE [1] was 0.67%, the NEUTROPHIL [1] was 5% and the “NUCLEATED RED BLOOD CELLS” value [1] was 0 /100WBC. For the same compound, the “PLATELET COUNT” value [1] was 1187.67 x10E3/uL, the “ALANINE AMINOTRANSFERASE” value [1] was 53.33 u/L and the ALBUMIN [1] was 4.3 G/DL. The “ALKALINE PHOSPHATASE” value [1] was 289.33 u/L, the “ASPARTATE AMINOTRANSFERASE” value [1] was 93.33 u/L and the “BLOOD UREA NITROGEN” value [1] was 16.33 mg/dL. For the same compound, the “CARBON DIOXIDE” value [1] was 23.67 mmol/L, the CHLORIDE [1] was 105 MEQ/L and the CHOLESTEROL [1] was 62.33 mg/dL. The “CREATINE PHOSPHOKINASE” value [1] was 463.33 u/L, the CREATININE [1] was 0.26 mg/dL and the GLUCOSE [1] was 146.33 mg/dL. The “LACTATE DEHYDROGENASE” value [1] was 498.67 u/L, the LIPASE [1] was 9 u/L and the PHOSPHORUS [1] was 11.2 mg/dL. For the same compound, the POTASSIUM [1] was 5.71 MEQ/L, the SODIUM [1] was 144.27 MEQ/L and the “TOTAL BILIRUBIN” value [1] was 0.13 mg/dL. For the same compound, the “TOTAL PROTEIN” value [1] was 6.1 G/DL, the “URIC ACID” value [1] was 1.37 mg/dL and the “ABSOLUTE BASOPHIL” value [2] was 0 CELLS/uL. The “ABSOLUTE EOSINOPHIL” value [2] was 88 CELLS/uL, the “ABSOLUTE LYMPHOCYTE” value [2] was 12244.33 CELLS/uL and the “ABSOLUTE MONOCYTE” value [2] was 144 CELLS/uL. For the same compound, the “ABSOLUTE SEGMENTED NEUTROPHIL” value [2] was 1690.33 CELLS/uL, the BASOPHIL [2] was 0% and the EOSINOPHIL [2] was 0.67%. For the same compound, the “ERYTHROCYTE COUNT” value [2] was 5.72 x10E6/uL, the HEMATOCRIT [2] was 34.83% and the HEMOGLOBIN [2] was 14.07 G/DL. For the same compound, the “LEUKOCYTE COUNT” value [2] was 14.17 x10E3/uL, the LYMPHOCYTE [2] was 86.33% and the “MEAN CORPUSCULAR HEMOGLOBIN” value [2] was 24.63 pg. For the same compound, the “MEAN CORPUSCULAR HEMOGLOBIN CONCENTRATION” value [2] was 40.37 G/DL, the “MEAN CORPUSCULAR VOLUME” value [2] was 60.93 fL and the MONOCYTE [2] was 1%. For the same compound, the NEUTROPHIL [2] was 12%, the “NUCLEATED RED BLOOD CELLS” value [2] was 0 /100WBC and the “PLATELET COUNT” value [2] was 1238.33 x10E3/uL. The “ALANINE AMINOTRANSFERASE” value [2] was 54.33 u/L, the ALBUMIN [2] was 4 G/DL and the “ALKALINE PHOSPHATASE” value [2] was 304.33 u/L. The “ASPARTATE AMINOTRANSFERASE” value [2] was 87 u/L, the “BLOOD UREA NITROGEN” value [2] was 14 mg/dL and the “CARBON DIOXIDE” value [2] was 23.67 mmol/L. For the same compound, the CHLORIDE [2] was 102.33 MEQ/L, the CHOLESTEROL [2] was 63.33 mg/dL and the “CREATINE PHOSPHOKINASE” value [2] was 350.33 u/L. For the same compound, the CREATININE [2] was 0.18 mg/dL, the GLUCOSE [2] was 197.67 mg/dL and the “LACTATE DEHYDROGENASE” value [2] was 237.33 u/L. The LIPASE [2] was 9 u/L, the PHOSPHORUS [2] was 10.53 mg/dL and the POTASSIUM [2] was 5.18 MEQ/L. For the same compound, the SODIUM [2] was 142.5 MEQ/L, the “TOTAL BILIRUBIN” value [2] was 0.17 mg/dL and the “TOTAL PROTEIN” value [2] was 5.7 G/DL. For the same compound, the “URIC ACID” value [2] was 1.27 mg/dL, the “ABSOLUTE BASOPHIL” value [3] was 0 CELLS/uL and the “ABSOLUTE EOSINOPHIL” value [3] was 28.67 CELLS/uL. For the same compound, the “ABSOLUTE LYMPHOCYTE” value [3] was 12669 CELLS/uL, the “ABSOLUTE MONOCYTE” value [3] was 277.67 CELLS/uL and the “ABSOLUTE SEGMENTED NEUTROPHIL” value [3] was 1191.33 CELLS/uL. The BASOPHIL [3] was 0%, the EOSINOPHIL [3] was 0.33% and the “ERYTHROCYTE COUNT” value [3] was 5.82 x10E6/uL. The HEMATOCRIT [3] was 35.73%, the HEMOGLOBIN [3] was 14.33 G/DL and the “LEUKOCYTE COUNT” value [3] was 14.17 x10E3/uL. For the same compound, the LYMPHOCYTE [3] was 89.67%, the “MEAN CORPUSCULAR HEMOGLOBIN” value [3] was 24.6 pg and the “MEAN CORPUSCULAR HEMOGLOBIN CONCENTRATION” value [3] was 40.17 G/DL. For the same compound, the “MEAN CORPUSCULAR VOLUME” value [3] was 61.37 fL, the MONOCYTE [3] was 2% and the NEUTROPHIL [3] was 8%. For the same compound, the “NUCLEATED RED BLOOD CELLS” value [3] was 0 /100WBC, the “PLATELET COUNT” value [3] was 1144.33 x10E3/uL and the “ALANINE AMINOTRANSFERASE” value [3] was 48.33 u/L. The ALBUMIN [3] was 4.23 G/DL, the “ALKALINE PHOSPHATASE” value [3] was 308.67 u/L and the “ASPARTATE AMINOTRANSFERASE” value [3] was 76.67 u/L. The “BLOOD UREA NITROGEN” value [3] was 16.67 mg/dL, the “CARBON DIOXIDE” value [3] was 25.67 mmol/L and the CHLORIDE [3] was 108.67 MEQ/L. The CHOLESTEROL [3] was 58.33 mg/dL, the “CREATINE PHOSPHOKINASE” value [3] was 244.67 u/L and the CREATININE [3] was 0.23 mg/dL. The GLUCOSE [3] was 155.67 mg/dL, the “LACTATE DEHYDROGENASE” value [3] was 228.67 u/L and the LIPASE [3] was 10 u/L. The PHOSPHORUS [3] was 9.27 mg/dL, the POTASSIUM [3] was 6.1 MEQ/L and the SODIUM [3] was 150.27 MEQ/L. For the same compound, the “TOTAL BILIRUBIN” value [3] was 0.2 mg/dL, the “TOTAL PROTEIN” value [3] was 6.03 G/DL and the “URIC ACID” value [3] was 1.53 mg/dL.
